Results reported in PMC10989010, “A panel of janus kinase inhibitors identified with anti-inflammatory effects protect mice from lethal influenza virus infection” (Antimicrobial Agents and Chemotherapy, 2024).
pIC50: −log10 of the molar value. Where a name gives a salt, the structure may show the parent alone. Read-outs that look alike come from different tables or passages of the source.

How the values were obtained:
[1] = test system: IP-10; assay: cells; type: cell-based, human; details: read-out: IC50 IP-10
[2] = test system: IL-8; assay: U937 cell-based anti-inflammatory assay for influenza virus infection, IL-8 production (AlphaLISA); set-up: species or system human; details: read-out: IC50 IL-8
Method: U937 cells were seeded in a 96-well culture plate at a density of 1.5 × 10^5 cells per well and incubated for 24 hours prior to virus infection. Subsequently, the cells in each well were infected with the PR8 virus at a multiplicity of infection of 0.05 and treated with serially diluted drugs or left untreated as a control. The drugs were serially diluted threefold, starting from an initial concentration of 200 µM down to 0.01 µM. […] Following this incubation, the supernatants were collected and subjected to AlphaLISA analysis to determine IL-8, IP-10, and MCP1 protein levels.
The AlphaLISA detection kits employed in this study were IL-8 (PerkinElmer AL224), IP-10 (PerkinElmer AL259), and MCP1 (PerkinElmer, AL244). U937 cell culture supernatants were measured for IL-8, IP-10, and MCP-1 protein levels using AlphaLISA assay as per the manufacturer’s recommendations. The ELISA and AlphaLISA plates were read using the Varioskan LUX multimode microplate reader (Thermo Scientiﬁc, Waltham, MA, USA).

[3] = test system: MCP1; assay: cells; type: cell-based, human; details: read-out: IC50 MCP1
[4] = test system: U937 cells; assay: Cytotoxicity assay (CellTiter-Glo); type: cell-based, human; details: U937 cells; CellTiter-Glo; mean of three independent experiments
Method: (§1) The compound cytotoxicity was determined by CellTiter-Glo Assay (Promega, Madison, WI, USA). After adding 15 µL of CellTiter-Glo reagent to each well, plates were incubated at room temperature for 15 minutes with shaking. The luminescence intensity was determined by a multimode plate reader (Wallac Envision, PerkinElmer, MA, USA).

[5] = Cytotoxicity assay (CellTiter-Glo); type: cell-based, human; details: human
Method: as §1

[6] = U937 cells, CellTiter-Glo, mean of three independent experiments, read-out: CC50

| SMILES | pIC50 ([1]; Homo sapiens, U-937, 72 h) | pIC50 ([2]; Homo sapiens, U-937, 72 h) | pIC50 ([3]; Homo sapiens, U-937, 72 h) | CC50 [4] | CC50 [5, 6] | pIC50 [1] | pIC50 ([2]; U937 cells infected with PR8 virus, 72 hours, Alphalisa, mean of three independent experiments) | pIC50 [3] | CC50 [5] |
| --- | --- | --- | --- | --- | --- | --- | --- | --- | --- |
| N#CCNC(=O)c1ccc(-c2ccnc(Nc3ccc(N4CCOCC4)cc3)n2)cc1 [Momelotinib] | 6.32 | 6.52 | 7.52 | 5.4 µM |  |  |  |  |  |
| CC[C@@](C)(Nc1ccnc(-c2c[nH]c3ncccc23)n1)C(=O)NCC(F)(F)F [Decernotinib] | 7.00 |  | 7.30 | 50 µM |  |  |  |  |  |
| N#CC[C@H](C1CCCC1)n1cc(-c2ncnc3[nH]ccc23)cn1 [Ruxolitinib] | 7.15 | 6.92 | 7.52 | 100 µM |  |  |  |  |  |
| Cc1cc(Nc2nc(N[C@@H](C)c3ncc(F)cn3)ncc2Cl)n[nH]1 [AZD1480] | 6.00 | 5.96 | 6.52 |  | 13.5 µM |  |  |  |  |
| Cc1cc(Nc2nc(N[C@@H](C)c3ccc(F)cc3)c(C#N)cc2F)n[nH]1 [AZ 960] | 8.00 | > 8.30 | > 8.30 | 6 µM |  |  |  |  |  |
| N#CC[C@@H](C1CCCC1)n1cc(-c2ncnc3[nH]ccc23)cn1 [S-Ruxolitinib] | 7.10 | 7.52 | 7.22 |  | 100 µM |  |  |  |  |
| Cc1cc(Nc2cc(CN3CCOCC3)c3nc(C)c(Cc4ccc(Cl)cc4F)n3n2)n[nH]1 [Gandotinib] | 8.00 | > 8.30 | > 8.30 | 26 µM |  |  |  |  |  |
| CCS(=O)(=O)N1CCN(c2ccc(Nc3ncc(C(N)=O)c(NC4CC4)n3)cc2)CC1 [Cerdulatinib hydrochloride] | 7.30 | > 8.30 | 7.70 | 3.5 µM |  |  |  |  |  |
| CN1CCN(c2cccc(Nc3nc4c(-c5ccc(S(C)(=O)=O)cc5)cccn4n3)c2)CC1 [CEP-33779] |  |  |  | 10.5 µM |  | 6.66 | 6.44 | 6.62 |  |
| CCS(=O)(=O)N1CC(CC#N)(n2cc(-c3ncnc4[nH]ccc34)cn2)C1 [Baricitinib] |  |  |  | > 100 µM |  |  |  |  |  |
| C[C@@H]1CCN(C(=O)CC#N)C[C@@H]1N(C)c1ncnc2[nH]ccc12 [Tofacitinib citrate] |  |  |  |  | > 100 µM |  |  |  |  |
| C[C@@H]1CCN(C(=O)CC#N)C[C@@H]1N(C)c1ncnc2[nH]ccc12 [Tofacitinib] |  |  |  | > 100 µM |  |  |  |  |  |
| O=C(Nc1ccc(-c2ccnc(Nc3ccc(N4CCOCC4)cc3)n2)cc1)C1CCCN1 (stereo not drawn) [XL019] | 6.00 | 6.29 | 6.03 | 26.7 µM |  |  |  |  |  |
| NC(=O)c1cnc2[nH]ccc2c1N[C@@H]1[C@@H]2CC3C[C@H]1C[C@@](O)(C3)C2 [Peficitinib] | 7.70 | 8.00 |  |  |  |  |  |  | 34.7 µM |
